Experimental data as given in patent US12227517B2, “Pyridazinyl-thiazolecarboxamide compound” (Astellas Pharma Inc., priority 2019, dated 2025).
Counter-ions that a name gives are not always drawn.

What follows are compounds tested against human recombinant DGK ξ (Homo sapiens (Human), UniProt Q13574) (assay: Evaluation of DGK ξ inhibitory effect (ADP-Glo Kinase Assay)).
Type: biochemical
Procedure: Test Example 1: Evaluation of DGK ξ Inhibitory Effect
The inhibitory effect of a test compound on human recombinant DGK ξ (Carna Biosciences, Inc., 12-410-20N) was examined by the following method in which detection is performed with ADP-Glo™ Kinase Assay (Promega Corporation).
To a 384-well plate (Greiner Bio-One Co., Ltd.), 3 μL of a […] dissolved in an assay buffer (40 mM Tris-HCl pH 7.5, 10 mM MgCl2, 1 mM dithiothreitol (DTT) and 0.1 mg/mL bovine serum albumin (BSA)) (90 ng/mL) was added, and 3 μL of the test compound diluted with the same assay buffer was added so that an intended final concentration was obtained. The mixture was left standing at room temperature for 15 minutes, 3 μL of a substrate (150 μM 1-oleoyl-2-acetyl-sn-glycerol (Sigma-Aldrich Co. LLC.), 480 μM phosphatidylserine (Avanti Polar Lipids, Inc.) and 150 μM UltraPure-ATP (attached to ADP-Glo)) was then added, and the mixture was left standing at room temperature for 30 minutes to react. Thereafter, 3 μL of an ADP-Glo Reagent was added, and the mixture was left standing at room temperature for 40 minutes to stop the enzyme reaction. Further, 6 μL of a Kinase-Detection Reagent was added, the mixture was left standing at room temperature for 30 minutes, and the luminescence was then measured using ARVO X3 (PerkinElmer, Inc.). The half maximal inhibitory concentration (IC50) was calculated by Sigmoid-Emax model non-linear regression analysis, where the signal value in solvent treatment was set to 0% inhibition and the signal value without addition of the DGK ξ enzyme was set to 100% inhibition. […] In the table, Ex represents the number of each Example described below. Also, in the table, compound C (cpd. C) represents the test compound of the Example 199 described in the international publication WO 2008/054702.

Sequence of human recombinant DGK ξ (Q13574 whole entry): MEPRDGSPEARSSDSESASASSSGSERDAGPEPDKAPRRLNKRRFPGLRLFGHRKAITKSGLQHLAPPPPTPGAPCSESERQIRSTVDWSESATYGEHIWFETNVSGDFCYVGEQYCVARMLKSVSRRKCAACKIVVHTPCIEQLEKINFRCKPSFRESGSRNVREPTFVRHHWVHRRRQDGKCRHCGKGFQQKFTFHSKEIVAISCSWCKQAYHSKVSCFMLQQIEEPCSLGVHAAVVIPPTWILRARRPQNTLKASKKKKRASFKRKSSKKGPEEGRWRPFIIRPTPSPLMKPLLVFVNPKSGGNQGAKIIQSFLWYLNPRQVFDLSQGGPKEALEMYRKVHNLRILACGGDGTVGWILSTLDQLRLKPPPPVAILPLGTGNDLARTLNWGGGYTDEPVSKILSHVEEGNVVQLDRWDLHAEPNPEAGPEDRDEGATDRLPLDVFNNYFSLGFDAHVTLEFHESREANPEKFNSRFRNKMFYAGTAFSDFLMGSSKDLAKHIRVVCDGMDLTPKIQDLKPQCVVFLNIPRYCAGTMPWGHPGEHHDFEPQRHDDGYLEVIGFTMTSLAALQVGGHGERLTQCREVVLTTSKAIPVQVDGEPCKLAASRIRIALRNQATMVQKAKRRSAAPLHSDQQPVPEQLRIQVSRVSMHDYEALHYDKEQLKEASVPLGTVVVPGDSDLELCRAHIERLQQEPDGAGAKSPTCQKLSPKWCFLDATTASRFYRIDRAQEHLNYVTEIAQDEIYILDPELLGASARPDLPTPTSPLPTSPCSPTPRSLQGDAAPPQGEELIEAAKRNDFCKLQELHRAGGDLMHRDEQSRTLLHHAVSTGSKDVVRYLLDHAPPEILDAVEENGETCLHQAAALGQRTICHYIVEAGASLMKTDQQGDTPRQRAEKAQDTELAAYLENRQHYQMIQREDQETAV

SMILES	IC50
CNC[C@H]1CN(c2c(NC(=O)c3csc(-c4ccnnc4)n3)ccc(Oc3ccccc3)c2C(F)(F)F)CCN1C [Example 6, N-[2-{(3S)-4-methyl-3-[(methylamino)methyl]piperazin-1-yl}-4-phenoxy-3-(trifluoromethyl)phenyl]-2-(pyridazin-4-yl)-1,3-thiazole-4-carboxamide]	0.003 µM
NCC[C@@H]1CN(c2c(NC(=O)c3csc(-c4ccnnc4)n3)ccc(Oc3ccccc3)c2C(F)(F)F)CCO1 [Example 30]	0.039 µM
CNC[C@H]1CCCN1c1c(NC(=O)c2csc(-c3ccnnc3)n2)ccc(Oc2ccccc2)c1C(F)(F)F [Example 37]	0.026 µM
CN1CCC2(CC1)CN(c1c(NC(=O)c3csc(-c4ccnnc4)n3)ccc(Oc3ccccc3)c1C(F)(F)F)CCO2 [Example 1, N-[2-(9-methyl-1-oxa-4,9-diazaspiro[5.5]undecan-4-yl)-4-phenoxy-3-(trifluoromethyl)phenyl]-2-(pyridazin-4-yl)-1,3-thiazole-4-carboxamide]	0.003 µM
CNC[C@@H]1CCCN(c2c(NC(=O)c3csc(-c4ccnnc4)n3)ccc(Oc3ccccc3)c2C(F)(F)F)C1 [Example 49, N-[2-{(3S)-3-[(methylamino)methyl]piperidin-1-yl}-4-phenoxy-3-(trifluoromethyl)phenyl]-2-(pyridazin-4-yl)-1,3-thiazole-4-carboxamide]	0.01 µM
NC[C@@H]1CCCN(c2c(NC(=O)c3csc(-c4ccnnc4)n3)ccc(Oc3c(F)cc(F)cc3F)c2C(F)(F)F)C1 [Example 23]	0.01 µM
CNC[C@H]1CCCN(c2c(NC(=O)c3csc(-c4ccnnc4)n3)ccc(Oc3ccccc3)c2C(F)(F)F)C1 [Example 50]	0.023 µM
CNCC1CCCN(c2c(NC(=O)c3csc(-c4ccnnc4)n3)ccc(Oc3ccccc3)c2C(F)(F)F)C1 (centres unmarked) [Example 64, N-[2-{3-[(methylamino)methyl]piperidin-1-yl}-4-phenoxy-3-(trifluoromethyl)phenyl]-2-(pyridazin-4-yl)-1,3-thiazole-4-carboxamide]	0.03 µM
CN(C)C[C@@H]1CCCN(c2c(NC(=O)c3csc(-c4ccnnc4)n3)ccc(Oc3ccccc3)c2C(F)(F)F)C1 [Example 55]	0.099 µM
NC[C@@H]1CCCN(c2c(NC(=O)c3csc(-c4ccnnc4)n3)ccc(Oc3cccc(F)c3)c2C(F)(F)F)C1 [Example 85]	0.015 µM
NC[C@@H]1CCCN(c2c(NC(=O)c3csc(-c4ccnnc4)n3)ccc(OC3CC3)c2C(F)(F)F)C1 [Example 13]	0.013 µM
NCC[C@H]1CCCN1c1c(NC(=O)c2csc(-c3ccnnc3)n2)ccc(Oc2ccccc2)c1C(F)(F)F [Example 45]	0.024 µM
NC[C@@H]1CCCN(c2c(NC(=O)c3csc(-c4ccnnc4)n3)cc(F)c(Oc3ccccc3)c2F)C1 [Example 24]	0.011 µM
CN1CCN(c2c(NC(=O)c3csc(-c4ccnnc4)n3)ccc(Oc3ccccc3)c2C(F)(F)F)C[C@@H]1CN [Example 8]	0.009 µM
NC[C@@H]1CCCN(c2c(NC(=O)c3csc(-c4ccnnc4)n3)ccc(Oc3ccc(F)cc3)c2C(F)(F)F)C1 [Example 41]	0.011 µM
CNC[C@@H]1CCCN(c2c(NC(=O)c3csc(-c4ccnnc4)n3)ccc(Oc3cccc(F)c3)c2C(F)(F)F)C1 [Example 51]	0.016 µM
O=C(Nc1ccc(Oc2ccccc2)c(C(F)(F)F)c1N1CCOC2(CCNCC2)C1)c1csc(-c2ccnnc2)n1 [Example 12]	0.017 µM
CN(C)C[C@H]1CCCN(c2c(NC(=O)c3csc(-c4ccnnc4)n3)ccc(Oc3ccccc3)c2C(F)(F)F)C1 [Example 54, N-[2-{(3R)-3-[(dimethylamino)methyl]piperidin-1-yl}-4-phenoxy-3-(trifluoromethyl)phenyl]-2-(pyridazin-4-yl)-1,3-thiazole-4-carboxamide dihydrochloride]	0.017 µM
CCNC[C@@H]1CCCN(c2c(NC(=O)c3csc(-c4ccnnc4)n3)ccc(Oc3cccc(F)c3)c2C(F)(F)F)C1 [Example 52]	0.023 µM
COCCNC[C@@H]1CCCN(c2c(NC(=O)c3csc(-c4ccnnc4)n3)ccc(Oc3cccc(F)c3)c2C(F)(F)F)C1 [Example 53]	0.027 µM
